Experimental data reported in patent US8772029B2, “Modulation of oocyte meiotic progression and oocyte activation” (Northwestern University, priority 2011, dated 2014).
Entries after “also recorded” stand apart in the source; their conditions may differ. Peptide text beside a SMILES is read from it. * marks the point of attachment. Cbz = O=C(OCc1ccccc1)*

Experiments:
MII eggs = assay: Activation of in vivo ovulated MII eggs (SrCl2, TPEN, ZnPT pre-treatment)
Description: Ovulated MII eggs were collected as described above. Eggs were transferred to KSOM medium with or without 10 μM ZnPT (1:1000 dilution of a 10 mM stock in DMSO) for exactly 5 minutes. Eggs were then washed in KSOM and allowed to recover for 10-15 minutes prior to activation. For SrCl2 activation, eggs were transferred to drops of calcium-free KSOM containing 10 mM SrCl2 for 2 hours, followed by 4 additional hours of culture in calcium-containing KSOM without SrCl2. TPEN activation was performed as previously described (Kim et al., 2011); eggs were cultured for 6 hours in KSOM containing 10 μM TPEN. Unactivated controls were cultured in KSOM for the same 6 hour time period to assess levels of spontaneous parthenogenesis.
MII eggs were treated with the ionophore zinc pyrithione (ZnPT) for 5 minutes to increase intracellular zinc. Following a 10-15 minute recovery period, eggs were then treated with activating agents SrCl2 or TPEN.

CCNB1 = assay: Western blot for CCNB1 in oocytes; assay type: cell-based, mouse; settings: TPEN 10 h, then TPEN + 20 μM MG132 6 h
Description: Western blotting was performed essentially as previously described (Bernhardt et al., 2010). Briefly, 15 to 50 cumulus-denuded oocytes were transferred in a minimal amount of medium to microcentrifuge tubes and immediately lysed in 8 μL of 1x SDSPAGE Sample Buffer (Laemmli, 1970). SDS-PAGE gels were run using the Invitrogen NuPAGE system and transferred to Immobilon-P PVDF membranes (Millipore, Billerica, MA). Blocking and antibody incubations were in 2% w/v ECL Advanced Blocking Reagent (Amersham) in TBS-T (20mM Tris, pH7.4, 137mM NaC1, 0.1% Tween20 v/v). Anti-CCNB1antibody was diluted 1:500, anti-FBXO43 was used at 1:1000 dilution, and anti-tubulin antibody was used at 1:10,000. HRP-conjugated secondary antibodies were diluted 1:10,000. Detection was performed using Amersham ECL Advanced detection reagent. BIOMAX MR films (Kodak, Rochester, NY) were exposed and developed, or an Alpha-Innotech (San Learndo, CA) MultiImage II system was used.

MPF activity = assay: Histone H1 kinase assay on single oocytes/eggs (MPF activity); assay type: cell-based, mouse; settings: TPEN 10 h, then TPEN + 20 μM MG132 6 h
Description: Histone H1 and myelin basic protein (MBP) dual kinase assays were performed as previously described (Svoboda et al., 2000). Dried gels were exposed to Kodak BIOMAX MR films for 12 to 72 hours at −80° C. using Kodak intensifying screens; films were developed, scanned, and analyzed using ImageJ software. Assays were performed on single oocytes, and densitometric analysis is expressed relative to levels in control eggs.

[1] = test system: zinc-insufficient oocytes; assay: Spindle phenotype scoring after IVM in TPEN with proteasome inhibitor MG132 added after 10 h; assay type: cell-based, mouse; settings: TPEN 10 h, then TPEN + 20 μM MG132 6 h
Description: For IVM studies, immature female CD1 mice (17 to 21 day old) were injected with 5IU equine chorionic gonadotropin (eCG) (Calbiochem, La Jolla, CA) in 100 μL sterile phosphate-buffered saline (PBS), intraperitoneally. After 44 to 48 hours, mice were anesthetized using isoflurane and euthanized by cervical dislocation. Dissected ovaries were placed in Leibovitz L-15 medium containing 1% FBS (L-15/FBS) and 0.2mM 3-isobutyl-1-methylxanthine (IBMX), and large antral follicles were punctured using 28 gauge needles to release cumulus oocyte complexes (COCs). COCs were washed through several drops of culture medium consisting of Minimum Essential Medium (MEM)-alpha with GLUTAMAX supplemented with 10% FBS, 1.5IU/mL human chorionic gonadotropin (hCG), and 5ng/mL epidermal growth factor and placed in culture medium with or without 10 μM N,N,N′,N′-tetrakis(2-pyridylmethyl) ethylenediamine (TPEN). In some experiments Z-Leu-Leu-Leu-al (MG132) was added to culture medium at 20 μM. COCs were cultured in drops of pre-equilibrated medium covered with embryo quality mineral oil at 37° C. in 5% CO2 with a humid environment. Ovulated MII eggs were collected from 4 to 6 week old mice primed with 5IU PMSG followed 48 h later by 5IU hCG. Oviducts were dissected into L-15/FBS, and eggs were removed and treated with 0.03% (w/v) hyaluronidase to remove cumulus cells. Eggs were washed and cultured in potassium simplex optimized medium (KSOM) (Millipore, Billerica, MA) covered with embryo quality mineral oil at 37° C. in 5% CO2.
Oocytes were denuded of cumulus cells and fixed in a microtubule stabilizing buffer (Ibanez et al., 2005) containing 2% formaldehyde and 1% Triton X-100 for 30 min at 37° C. Oocytes were washed and blocked in PBS containing 0.1M glycine, 3mg/mL BSA, 0.01% Tween 20, and 0.01% sodium azide for at least 1 h and were stored in blocking solution at 4° C. for up to 2 weeks. Oocytes were incubated with anti-tubulin antibody (1:100) for 1 h at 37C. followed by three washes in blocking solution. They were then incubated for 1 h in AlexaFluor-488 conjugated anti-mouse secondary antibody (5μg/mL) and rhodamine-phalloidin (2U/mL), washed three additional times, and mounted in VECTASHIELD with DAPI. Microscopy was performed using a Leica SP5 inverted laser-scanning confocal microscope with a 63x oil immersion objective (Leica Microsystems, Heidelberg, Germany). Images were processed using LAS AF software (Leica Microsystems).
It has been previously shown that zinc-insufficient oocytes fail to increase MPF activity following the first meiotic division and have low CCNB1 protein levels (Bernhardt et al., 2010). In order to determine whether this decrease in CCNB1 is the major cause of the observed meiotic arrest phenotype, it was tested whether increasing CCNB1 would be sufficient to rescue MII entry in zinc-insufficient oocytes by inhibiting the proteasome at the end of the MI-MII transition, thereby halting CCNB1 degradation. Experimental oocytes were cultured for 10 hours in TPEN-containing medium and were then transferred into medium containing TPEN as well as the proteasome inhibitor Z-Leu-Leu-Leu-al (MG132) at 20 μM concentration. MG132 was added after first polar body extrusion, because earlier addition would result in MI arrest due to failure to degrade APC/C targets that prevent cell division. Oocytes were cultured for an additional 6 h in the presence of MG132 to allow time for CCNB1 reaccumulation, for a total 16 h IVM culture period. Proteasome inhibition led to a partial rescue of the zinc insufficiency phenotype. 69% of treated oocytes formed spindle-like structures, and none were in telophase I arrest, despite being cultured in the presence of TPEN for the entire culture period (FIG. 2, A; Table 2).
A majority of zinc-insufficient oocytes treated with MG132 following the first meiotic division transition progress beyond telophase-I arrest and form MII spindle-like structures. […]

[Cl-].[Cl-].[Sr+2] [SrCl2]
egg activation (second polar body and PN or PN-like structures) (MII eggs; control MII eggs, by 6 hours post activation, 10 mM SrCl2 2 h or 10 μM TPEN 6 h): activated normally

CC(C)C[C@@H](C=O)NC(=O)[C@H](CC(C)C)NC(=O)[C@H](CC(C)C)NC(=O)OCc1ccccc1 [MG132, Z-Leu-Leu-Leu-al] (Cbz-Leu-Leu-Leu-aldehyde)
CCNB1 protein levels (CCNB1): only partially restores; also recorded: only slightly increased
MPF activity (histone H1 kinase) compared to oocytes cultured with TPEN alone (MPF activity): increased
oocytes with some degree of MII spindle formation (spindle-like structures) [1]: 69%
MII (aligned metaphase plate) ([1]; n=26): 19%
other spindle phenotype ([1]; n=26): 15%
persisting midbody or chromatin mass ([1]; n=26): 15%
spindle with chr. scattered along length ([1]; n=26): 19%
spindle with ≦3 chr. out of place ([1]; n=26): 31%

zinc pyrithione [ZnPT]
MII spindle organisation after ZnPT (MII eggs; 10 μM ZnPT 5 minutes, unactivated eggs and SrCl2-treated eggs, 6 hours of culture): caused spindle abnormalities
egg activation by TPEN after ZnPT pre-treatment (MII eggs; MII eggs, 10 μM ZnPT 5 minutes, then 10 μM TPEN 6 h): formed second polar bodies and PN-like structures
egg activation by SrCl2 after ZnPT pre-treatment (MII eggs; MII eggs, 10 μM ZnPT 5 minutes, then 10 mM SrCl2): did not show signs of activation
